Experimental data taken from PMC4685510, “A Cell Biologist’s Field Guide to Aurora Kinase Inhibitors” (Frontiers in Oncology, 2015).

Tests used:
Test in all cases: biochemical
Assay type in all cases: biochemical
[1] = target: T1, 363 human kinases (including Aurora A/B/C) (Homo sapiens, UniProt Q05513); settings: PKCzeta; for remaining activity at 0.1 µM: 100 nM; for remaining activity at 0.1 µM / remaining activity at 0.5 µM: read-out: % Enzyme Activity (relative to DMSO controls)
T1 sequence (Q05513 1-592): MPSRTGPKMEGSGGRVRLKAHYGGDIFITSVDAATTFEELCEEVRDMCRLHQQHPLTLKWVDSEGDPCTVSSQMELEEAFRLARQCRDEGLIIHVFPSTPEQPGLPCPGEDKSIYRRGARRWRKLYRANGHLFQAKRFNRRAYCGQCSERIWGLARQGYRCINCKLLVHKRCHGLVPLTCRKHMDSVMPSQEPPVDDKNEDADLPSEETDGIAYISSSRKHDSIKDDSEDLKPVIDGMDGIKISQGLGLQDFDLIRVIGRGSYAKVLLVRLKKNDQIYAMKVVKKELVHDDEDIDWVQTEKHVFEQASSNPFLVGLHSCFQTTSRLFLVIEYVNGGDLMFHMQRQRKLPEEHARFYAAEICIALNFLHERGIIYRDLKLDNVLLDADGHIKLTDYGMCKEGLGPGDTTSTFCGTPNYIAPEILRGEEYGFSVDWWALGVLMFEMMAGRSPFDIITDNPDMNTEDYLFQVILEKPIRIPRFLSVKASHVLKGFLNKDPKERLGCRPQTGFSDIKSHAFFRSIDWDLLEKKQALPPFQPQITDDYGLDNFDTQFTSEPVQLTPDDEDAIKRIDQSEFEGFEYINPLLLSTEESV
Text: (§1) However, the Aurora A/B selectivity ratios derived from our in vitro and in vivo data can be compared to prioritize inhibitors.

[2] = target: T2, 363 human kinases (including Aurora A/B/C) (Homo sapiens, UniProt Q8TD19); settings: NEK9; for remaining activity at 0.1 µM: 100 nM; for remaining activity at 0.1 µM / remaining activity at 0.5 µM: read-out: % Enzyme Activity (relative to DMSO controls)
T2 sequence (Q8TD19 1-979): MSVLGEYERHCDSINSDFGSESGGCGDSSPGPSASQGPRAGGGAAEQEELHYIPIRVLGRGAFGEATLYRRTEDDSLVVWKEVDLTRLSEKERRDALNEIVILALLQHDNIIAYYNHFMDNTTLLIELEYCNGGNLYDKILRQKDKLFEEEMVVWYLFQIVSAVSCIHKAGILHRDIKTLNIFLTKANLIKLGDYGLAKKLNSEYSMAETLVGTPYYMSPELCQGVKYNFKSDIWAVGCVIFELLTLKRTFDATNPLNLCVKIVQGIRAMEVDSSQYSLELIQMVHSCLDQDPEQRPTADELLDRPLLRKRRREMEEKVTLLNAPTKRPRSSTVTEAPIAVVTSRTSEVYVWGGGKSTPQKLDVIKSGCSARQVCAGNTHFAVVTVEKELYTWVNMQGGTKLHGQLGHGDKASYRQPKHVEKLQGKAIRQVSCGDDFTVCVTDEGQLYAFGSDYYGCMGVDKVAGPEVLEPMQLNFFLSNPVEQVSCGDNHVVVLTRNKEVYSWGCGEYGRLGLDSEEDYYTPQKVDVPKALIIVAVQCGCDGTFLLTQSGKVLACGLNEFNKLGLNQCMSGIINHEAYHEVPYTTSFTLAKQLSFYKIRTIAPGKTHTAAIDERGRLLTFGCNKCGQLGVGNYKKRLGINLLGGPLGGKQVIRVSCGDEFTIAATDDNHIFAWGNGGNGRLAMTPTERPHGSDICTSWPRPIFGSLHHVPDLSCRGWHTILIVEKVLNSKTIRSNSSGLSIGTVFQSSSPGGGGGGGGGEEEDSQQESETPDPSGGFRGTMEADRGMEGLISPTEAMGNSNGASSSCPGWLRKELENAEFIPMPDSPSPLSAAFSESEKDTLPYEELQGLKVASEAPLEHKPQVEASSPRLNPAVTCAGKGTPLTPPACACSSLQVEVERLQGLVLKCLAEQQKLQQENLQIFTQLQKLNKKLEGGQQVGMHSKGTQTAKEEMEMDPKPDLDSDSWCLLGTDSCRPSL
Text: as §1

[3] = target: 363 human kinases (including Aurora A/B/C) (Homo sapiens, UniProt Q9Y6M4); settings: CK1g3, [ATP] 10 µM; for remaining activity at 0.1 µM: 100 nM; for remaining activity at 0.1 µM / remaining activity at 0.5 µM: read-out: % Enzyme Activity (relative to DMSO controls)
Text: as §1

[4] = target: 363 human kinases (including Aurora A/B/C) (Homo sapiens, UniProt P07332); settings: FES/FPS, [ATP] 50 µM; for remaining activity at 0.1 µM: 100 nM; for remaining activity at 0.1 µM / remaining activity at 0.5 µM: read-out: % Enzyme Activity (relative to DMSO controls)
Text: as §1

[5] = target: 363 human kinases (including Aurora A/B/C) (Homo sapiens, UniProt O75460); settings: ERN1/IRE1, [ATP] 30 µM; for remaining activity at 0.1 µM: 100 nM; for remaining activity at 0.1 µM / remaining activity at 0.5 µM: read-out: % Enzyme Activity (relative to DMSO controls)
Text: as §1

[6] = target: 363 human kinases (including Aurora A/B/C) (Homo sapiens, UniProt O75716); settings: STK16; for remaining activity at 0.1 µM: 100 nM; for remaining activity at 0.1 µM / remaining activity at 0.5 µM: read-out: % Enzyme Activity (relative to DMSO controls)
Text: as §1

[7] = target: T3, 363 human kinases (including Aurora A/B/C) (Homo sapiens, UniProt Q6VAB6); settings: KSR2; for remaining activity at 0.1 µM: 100 nM; for remaining activity at 0.1 µM / remaining activity at 0.5 µM: read-out: % Enzyme Activity (relative to DMSO controls)
T3 sequence (Q6VAB6 1-950): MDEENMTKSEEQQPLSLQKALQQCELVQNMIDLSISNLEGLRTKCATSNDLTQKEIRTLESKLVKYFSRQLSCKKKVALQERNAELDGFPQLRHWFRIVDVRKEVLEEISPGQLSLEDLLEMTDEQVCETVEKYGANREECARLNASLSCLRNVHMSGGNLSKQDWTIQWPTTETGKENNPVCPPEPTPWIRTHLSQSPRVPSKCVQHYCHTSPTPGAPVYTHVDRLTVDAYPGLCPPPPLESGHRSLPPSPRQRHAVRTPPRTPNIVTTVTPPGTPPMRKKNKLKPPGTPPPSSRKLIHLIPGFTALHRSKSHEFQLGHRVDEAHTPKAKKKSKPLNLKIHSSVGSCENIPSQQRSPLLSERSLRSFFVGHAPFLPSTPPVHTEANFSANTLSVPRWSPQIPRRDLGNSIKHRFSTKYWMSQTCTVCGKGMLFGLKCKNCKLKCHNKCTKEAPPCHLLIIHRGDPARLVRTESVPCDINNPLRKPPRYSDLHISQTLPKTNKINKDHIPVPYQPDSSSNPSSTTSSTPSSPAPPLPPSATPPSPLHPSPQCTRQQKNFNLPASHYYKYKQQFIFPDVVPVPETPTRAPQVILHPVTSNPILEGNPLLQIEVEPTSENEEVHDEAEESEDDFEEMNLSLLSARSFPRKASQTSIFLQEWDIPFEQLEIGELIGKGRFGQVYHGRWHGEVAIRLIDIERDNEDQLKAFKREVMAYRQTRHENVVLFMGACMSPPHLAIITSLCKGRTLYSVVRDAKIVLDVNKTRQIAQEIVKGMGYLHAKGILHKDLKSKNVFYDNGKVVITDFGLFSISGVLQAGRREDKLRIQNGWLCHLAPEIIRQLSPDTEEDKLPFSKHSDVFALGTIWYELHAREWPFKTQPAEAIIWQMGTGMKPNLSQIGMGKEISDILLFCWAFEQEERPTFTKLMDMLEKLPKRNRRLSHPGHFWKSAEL
Text: as §1

363 human kinases (including Aurora A/B/C) (Homo sapiens, UniProt Q9Y6M4), sequence (Q9Y6M4 whole entry): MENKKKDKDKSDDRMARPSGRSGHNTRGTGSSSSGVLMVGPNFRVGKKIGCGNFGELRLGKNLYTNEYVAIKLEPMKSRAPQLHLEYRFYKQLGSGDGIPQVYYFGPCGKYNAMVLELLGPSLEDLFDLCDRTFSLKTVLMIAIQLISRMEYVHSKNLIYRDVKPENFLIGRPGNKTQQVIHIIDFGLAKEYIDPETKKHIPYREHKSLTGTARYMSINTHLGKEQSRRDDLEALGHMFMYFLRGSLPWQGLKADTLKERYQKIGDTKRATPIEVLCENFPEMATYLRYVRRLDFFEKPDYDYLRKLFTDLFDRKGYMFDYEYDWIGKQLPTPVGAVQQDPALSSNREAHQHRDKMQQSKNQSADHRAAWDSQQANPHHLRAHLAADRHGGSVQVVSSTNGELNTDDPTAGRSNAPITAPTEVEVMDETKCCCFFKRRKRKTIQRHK
363 human kinases (including Aurora A/B/C) (Homo sapiens, UniProt O75460), sequence (O75460 19-977): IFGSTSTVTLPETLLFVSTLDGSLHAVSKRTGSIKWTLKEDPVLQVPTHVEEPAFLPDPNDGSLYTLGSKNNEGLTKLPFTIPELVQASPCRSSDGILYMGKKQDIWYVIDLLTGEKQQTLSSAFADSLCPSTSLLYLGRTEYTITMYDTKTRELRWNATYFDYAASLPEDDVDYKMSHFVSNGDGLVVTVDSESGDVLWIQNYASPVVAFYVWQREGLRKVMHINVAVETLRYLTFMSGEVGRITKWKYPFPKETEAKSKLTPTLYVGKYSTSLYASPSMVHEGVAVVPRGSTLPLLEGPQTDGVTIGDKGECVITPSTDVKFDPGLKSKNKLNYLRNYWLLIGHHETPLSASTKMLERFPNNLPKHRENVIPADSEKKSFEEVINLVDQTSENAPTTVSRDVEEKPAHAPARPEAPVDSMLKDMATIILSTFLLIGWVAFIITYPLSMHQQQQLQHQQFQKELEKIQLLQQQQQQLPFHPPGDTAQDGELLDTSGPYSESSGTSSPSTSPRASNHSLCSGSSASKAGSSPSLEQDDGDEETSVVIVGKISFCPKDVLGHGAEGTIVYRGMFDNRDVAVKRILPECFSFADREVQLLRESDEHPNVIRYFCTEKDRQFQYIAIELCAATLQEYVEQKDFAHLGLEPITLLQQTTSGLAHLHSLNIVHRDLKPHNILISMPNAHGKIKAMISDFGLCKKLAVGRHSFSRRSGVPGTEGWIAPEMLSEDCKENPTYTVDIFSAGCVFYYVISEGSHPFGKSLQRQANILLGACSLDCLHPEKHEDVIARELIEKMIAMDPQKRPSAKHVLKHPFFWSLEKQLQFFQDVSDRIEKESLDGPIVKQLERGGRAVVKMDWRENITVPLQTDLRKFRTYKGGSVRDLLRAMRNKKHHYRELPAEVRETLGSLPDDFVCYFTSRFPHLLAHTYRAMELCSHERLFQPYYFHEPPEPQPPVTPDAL
363 human kinases (including Aurora A/B/C) (Homo sapiens, UniProt O75716), sequence (O75716 whole entry): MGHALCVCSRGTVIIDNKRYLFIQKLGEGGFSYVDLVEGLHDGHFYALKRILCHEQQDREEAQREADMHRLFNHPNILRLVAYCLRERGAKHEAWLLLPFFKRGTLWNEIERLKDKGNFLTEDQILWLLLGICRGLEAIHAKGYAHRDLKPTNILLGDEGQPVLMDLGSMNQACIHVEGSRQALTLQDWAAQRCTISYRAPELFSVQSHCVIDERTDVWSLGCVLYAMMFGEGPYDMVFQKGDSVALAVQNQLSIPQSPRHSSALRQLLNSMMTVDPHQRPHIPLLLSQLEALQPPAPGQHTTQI
363 human kinases (including Aurora A/B/C) (Homo sapiens, UniProt P07332), sequence (P07332 whole entry): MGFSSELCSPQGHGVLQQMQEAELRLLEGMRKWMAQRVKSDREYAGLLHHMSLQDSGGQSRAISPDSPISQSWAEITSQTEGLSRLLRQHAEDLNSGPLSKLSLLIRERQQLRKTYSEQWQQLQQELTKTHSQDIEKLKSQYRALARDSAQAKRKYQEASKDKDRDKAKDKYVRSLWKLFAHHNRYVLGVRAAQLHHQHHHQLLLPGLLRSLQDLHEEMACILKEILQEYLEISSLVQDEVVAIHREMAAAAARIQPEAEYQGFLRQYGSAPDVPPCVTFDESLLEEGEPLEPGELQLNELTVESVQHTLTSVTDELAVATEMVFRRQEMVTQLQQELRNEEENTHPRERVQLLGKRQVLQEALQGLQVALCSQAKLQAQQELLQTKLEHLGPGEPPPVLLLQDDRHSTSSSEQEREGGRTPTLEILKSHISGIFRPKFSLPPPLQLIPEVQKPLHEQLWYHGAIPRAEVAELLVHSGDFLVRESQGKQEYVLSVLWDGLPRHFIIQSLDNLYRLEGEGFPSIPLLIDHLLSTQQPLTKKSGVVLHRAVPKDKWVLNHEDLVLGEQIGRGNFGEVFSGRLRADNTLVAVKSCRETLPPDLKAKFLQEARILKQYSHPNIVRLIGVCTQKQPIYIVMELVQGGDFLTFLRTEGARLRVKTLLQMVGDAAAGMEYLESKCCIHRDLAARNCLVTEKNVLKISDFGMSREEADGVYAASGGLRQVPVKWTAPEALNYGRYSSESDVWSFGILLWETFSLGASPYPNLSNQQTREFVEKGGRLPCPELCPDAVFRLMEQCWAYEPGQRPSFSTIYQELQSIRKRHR

| Compound | remaining activity at 0.1 µM [1] [%] | remaining activity at 0.1 µM [2] [%] | remaining activity at 0.1 µM [3] [%] | remaining activity at 0.1 µM [4] [%] | remaining activity at 0.1 µM [5] [%] | remaining activity at 0.1 µM [6] [%] | remaining activity at 0.1 µM [7] [%] | remaining activity at 0.5 µM ([1]; 500 nM) [%] | remaining activity at 0.5 µM ([2]; 500 nM) [%] | remaining activity at 0.5 µM ([3]; 500 nM) [%] | remaining activity at 0.5 µM ([4]; 500 nM) [%] | remaining activity at 0.5 µM ([5]; 500 nM) [%] | remaining activity at 0.5 µM ([6]; 500 nM) [%] | remaining activity at 0.5 µM ([7]; 500 nM) [%] | further results |
| --- | --- | --- | --- | --- | --- | --- | --- | --- | --- | --- | --- | --- | --- | --- | --- |
| CCn1cc(-c2ccnc3[nH]c(-c4cccc(CN(C)C)c4)cc23)c(-c2ccc(NC(=O)N(C)C)cc2)n1 [GSK1070916] | 106 | 83.8 | 95 | 90 | 95.9 | 107 | 101 | – | – | – | – | – | – | – | – |
| O=C(O)[C@]1(Cc2cccc(Nc3nccs3)n2)CC[C@@H](Oc2cccc(Cl)c2F)CC1 [MK-5108] | 99.2 | 95.2 | 100 | 96 | 106 | 70.7 | 95.6 | 99.2 | 60.7 | 94.6 | 73.7 | 88.8 | 15.2 | 94.5 | – |
| O=C(c1cccc(Cl)c1F)N1CCN(Cc2cccc(Nc3nccs3)n2)CC1 [MK-8745] | – | – | – | – | – | – | – | 97.1 | 96.6 | 98.6 | 86 | 89.3 | 71.1 | 98.3 | % Enzyme Activity (relative to DMSO controls) ([1]; 500 nM): 96.81%; % Enzyme Activity (relative to DMSO controls) ([2]; 500 nM): 95.13%; % Enzyme Activity (relative to DMSO controls) ([3]; 500 nM): 98.01%; % Enzyme Activity (relative to DMSO controls) ([4]; 500 nM): 85.63%; % Enzyme Activity (relative to DMSO controls) ([5]; 500 nM): 88.65%; % Enzyme Activity (relative to DMSO controls) ([6]; 500 nM): 70.34%; % Enzyme Activity (relative to DMSO controls) ([7]; 500 nM): 95.49% |
